What was measured:
Assay type in all cases: cell-based
Details in all cases: 200 ng Fluc mRNA-LNP, 24 hours; Table 4
AML12 Cell Line = assay: Transfection of AML12 Cell Line with FLuc mRNA LNPs (ONE-Glo EX luciferase signal)
Method: (§1) mRNA encapsulated lipid nanoparticles (mRNA LNPs) were formulated using microfluidic mixing with a PNI Ignite instrument. Briefly, lipids (ionizable: structural: helper: PEG) were dissolved in ethanol and mixed with and aqueous solution of mRNA. These mRNA-loaded dispersions were then neutralized via a buffer exchange with a pre-determined buffer overnight. Afterwards, formed LNPs were concentrated with Amicon filter centrifugation, filtered, concentration of mRNA determined through a ribogreen assay, and frozen at −80° C. until use.
(§2) Cell lines were grown to confluence in T75 flasks using complete media of DMEM-F12 for AML12 and DMEM for both B16F10 and MC38.K. Cells were plated in a white 96 flat-well plate (AML12=20,000 cells/well, B16F10 and MC38.K=5,000 cells/well) with their respected media. Lipid nanoparticles were first diluted to 50 μg/ml using Opti-MEM and pre-incubated with mouse serum for 30 minutes to give an LNP concentration of 8 μg/ml. Cell media was replaced with Opti-MEM and LNPs were added to cells (200 ng of mRNA-LNP), placed back in the incubator, and allowed to transfect for 24 hours. Afterwards, 100 μl of Promega's ONE-Glo™ EX Luciferase Assay System or Promega's CellTiter-Glo® Luminescent Cell Viability Assay was added and mixed in their respective wells, followed by recording luminescence signals on a Thermo Scientific Varioskan LUX multimode microplate reader. The results are shown in FIG. 1, FIG. 2, FIG. 3, FIG. 4, FIG. 5, FIG. 6, FIG. 10, FIG. 11, and FIG. 21.

B16F10 Cell Line = assay: Transfection of B16F10 Cell Line with FLuc mRNA LNPs (ONE-Glo EX luciferase signal)
Method: as §1, §2

MC38.K Cell Line = assay: Transfection of MC38.K Cell Line with FLuc mRNA LNPs (ONE-Glo EX luciferase signal)
Method: as §1, §2

## CCCCCCCCCCCOC(=O)CCCCCN(CCO)CCCCCC(=O)OCCCCCCCCCCC [Compound 49]
AML12 Cell Line
  Total Luciferin Signal (RLU) In Vitro - AML12: 1.75E+04 RLU
B16F10 Cell Line
  Total Luciferin Signal (RLU) In Vitro - B16F10: 9.79E+03 RLU
MC38.K Cell Line
  Total Luciferin Signal (RLU) In Vitro - MC38.K: 2.99E+04 RLU

## CCCCCCCCCOC(=O)CCCCCN(CCO)CCCCCC(=O)OCCCCCCCCC [Compound 50]
AML12 Cell Line
  Total Luciferin Signal (RLU) In Vitro - AML12: 1.54E+04 RLU
B16F10 Cell Line
  Total Luciferin Signal (RLU) In Vitro - B16F10: 1.30E+04 RLU
MC38.K Cell Line
  Total Luciferin Signal (RLU) In Vitro - MC38.K: 1.85E+04 RLU

## CCCCCCCCC(CCCCCCCC)OC(=O)CCCCCN(CCO)CCCCCC(=O)OC(CCCCCCCC)CCCCCCCC [Compound 51]
AML12 Cell Line
  Total Luciferin Signal (RLU) In Vitro - AML12: 1.01E+06 RLU
B16F10 Cell Line
  Total Luciferin Signal (RLU) In Vitro - B16F10: 1.28E+06 RLU
MC38.K Cell Line
  Total Luciferin Signal (RLU) In Vitro - MC38.K: 1.70E+06 RLU

## CCCCCCC(CCCCCCCCF)COC(=O)CCCCCCCN(CCO)CCCCCCC(C)C(=O)OCCCCCCCCC(C)C (stereo not drawn) [Compound 73, 9-methyldecyl 8-((8-((10-fluoro-2-hexyldecyl)oxy)-8-oxooctyl)(2-hydroxyethyl)amino)-2-methyloctanoate]
AML12 Cell Line
  Total Luciferin Signal (RLU) In Vitro - AML12: 2.93E+06 RLU
B16F10 Cell Line
  Total Luciferin Signal (RLU) In Vitro - B16F10: 7.08E+06 RLU
MC38.K Cell Line
  Total Luciferin Signal (RLU) In Vitro - MC38.K: 1.77E+07 RLU

## CCCCCCCCCOC(=O)C(C)CCCCCCN(CCO)CCCCCCCCOC(=O)C(CCCC)CCCCCCF (stereo not drawn) [Compound 74, 8-((2-hydroxyethyl)(7-methyl-8-(nonyloxy)-8-oxooctyl)amino)octyl 2-butyl-8-fluorooctanoate]
AML12 Cell Line
  Total Luciferin Signal (RLU) In Vitro - AML12: 2.80E+04 RLU
B16F10 Cell Line
  Total Luciferin Signal (RLU) In Vitro - B16F10: 6.66E+04 RLU
MC38.K Cell Line
  Total Luciferin Signal (RLU) In Vitro - MC38.K: 1.94E+05 RLU

## CCCCCCCCC(CCCCCCCCF)OC(=O)CCCCCCCN(CCCCCCC(C)C(=O)OCCCCCCCCC(C)C)CC(C)CO (stereo not drawn) [Compound 75, 9-methyldecyl 8-((8-((1-fluoroheptadecan-9-yl)oxy)-8-oxooctyl)(3-hydroxy-2-methylpropyl)amino)-2-methyloctanoate]
AML12 Cell Line
  Total Luciferin Signal (RLU) In Vitro - AML12: 1.59E+04 RLU
B16F10 Cell Line
  Total Luciferin Signal (RLU) In Vitro - B16F10: 2.15E+04 RLU
MC38.K Cell Line
  Total Luciferin Signal (RLU) In Vitro - MC38.K: 4.51E+04 RLU

## CCCCCCCCCOC(=O)C(C)CCCCCCN(CCCCO)CCCCCCCCOC(=O)C(CCCC)CCCCCCF (stereo not drawn) [Compound 76, 8-((4-hydroxybutyl)(7-methyl-8-(nonyloxy)-8-oxooctyl)amino)octyl 2-butyl-8-fluorooctanoate]
AML12 Cell Line
  Total Luciferin Signal (RLU) In Vitro - AML12: 3.79E+04 RLU
B16F10 Cell Line
  Total Luciferin Signal (RLU) In Vitro - B16F10: 7.14E+04 RLU
MC38.K Cell Line
  Total Luciferin Signal (RLU) In Vitro - MC38.K: 2.38E+05 RLU

## CCCCCCCCCOC(=O)CCCCCCCN(CCCCO)CCCCCCCC(=O)OCC(CCCCCCCC)CCCCCCCCF (stereo not drawn) [Compound 77, 10-fluoro-2-octyldecyl 8-((4-hydroxybutyl)(8-(nonyloxy)-8-oxooctyl)amino)octanoate]
AML12 Cell Line
  Total Luciferin Signal (RLU) In Vitro - AML12: 5.38E+06 RLU
B16F10 Cell Line
  Total Luciferin Signal (RLU) In Vitro - B16F10: 7.80E+06 RLU
MC38.K Cell Line
  Total Luciferin Signal (RLU) In Vitro - MC38.K: 3.24E+07 RLU

## CCCCCCCCCOC(=O)C(C)CCCCCCN(CCO)CCCCCCCC(=O)OCC(CCCCCC)CCCCCCCCF (stereo not drawn) [Compound 78, nonyl 8-((8-((10-fluoro-2-hexyldecyl)oxy)-8-oxooctyl)(2-hydroxyethyl)amino)-2-methyloctanoate]
AML12 Cell Line
  Total Luciferin Signal (RLU) In Vitro - AML12: 2.42E+06 RLU
B16F10 Cell Line
  Total Luciferin Signal (RLU) In Vitro - B16F10: 6.65E+06 RLU
MC38.K Cell Line
  Total Luciferin Signal (RLU) In Vitro - MC38.K: 2.21E+07 RLU

## CCCCC(CCCCCCF)C(=O)OCCCCCCCCN(CCO)CCCCCCC(C)C(=O)OCCCCCCCCC(C)C (stereo not drawn) [Compound 79, 8-((2-hydroxyethyl)(7-methyl-8-((9-methyldecyl)oxy)-8-oxooctyl)amino)octyl 2-butyl-8-fluorooctanoate]
AML12 Cell Line
  Total Luciferin Signal (RLU) In Vitro - AML12: 7.26E+05 RLU
B16F10 Cell Line
  Total Luciferin Signal (RLU) In Vitro - B16F10: 1.84E+06 RLU
MC38.K Cell Line
  Total Luciferin Signal (RLU) In Vitro - MC38.K: 1.65E+07 RLU

## CCCCCCCCCOC(=O)CCCCCCCN(CCO)CCCCCCCC(=O)OCC(CCCCCCCC)CCCCCCCCF (stereo not drawn) [Compound 80, 10-fluoro-2-octyldecyl 8-((2-hydroxyethyl)(8-(nonyloxy)-8-oxooctyl)amino)octanoate]
AML12 Cell Line
  Total Luciferin Signal (RLU) In Vitro - AML12: 3.01E+06 RLU
B16F10 Cell Line
  Total Luciferin Signal (RLU) In Vitro - B16F10: 2.97E+06 RLU
MC38.K Cell Line
  Total Luciferin Signal (RLU) In Vitro - MC38.K: 1.95E+07 RLU

## CCCCCCCCCOC(=O)CCCCCCCN(CCCCO)CCCCCCCCOC(=O)C(CCCC)CCCCCCF (stereo not drawn) [Compound 81, 8-((4-hydroxybutyl)(8-(nonyloxy)-8-oxooctyl)amino)octyl 2-butyl-8-fluorooctanoate]
AML12 Cell Line
  Total Luciferin Signal (RLU) In Vitro - AML12: 4.91E+04 RLU
B16F10 Cell Line
  Total Luciferin Signal (RLU) In Vitro - B16F10: 5.85E+04 RLU
MC38.K Cell Line
  Total Luciferin Signal (RLU) In Vitro - MC38.K: 2.47E+06 RLU
